Data taken from PMC5547380, “Molecular cloning and characterization of protein disulfide isomerase of Brugia malayi, a human lymphatic filarial parasite” (EXCLI Journal, 2017).
Read-outs that look alike come from different tables or passages of the source.

Target: T1, Brugia malayi Protein disulfide isomerase (BmPDI) (Brugia malayi, UniProt A0A1S0S010)
T1 construct: gene pdi; recombinant 6XHis-tagged BmPDI expressed in E. coli
Test: refolding of reduced denatured RNase A, RNA hydrolysis followed by absorbance at […] nm
Format: biochemical

| IC50 (read-out: IC50) | SMILES | IC50 |
| --- | --- | --- |
| 17.6 µM | O=C1C=CC(=C(c2ccc(O)cc2)c2ccc(O)cc2)C=C1 [aurin] |  |
|  | NC[C@H]1O[C@H](O[C@H]2[C@H](O[C@@H]3O[C@H](CO)[C@@H](O)[C@H]3O)[C@@H](O)[C@H](N)C[C@@H]2N)[C@H](N)[C@@H](O)[C@@H]1O [ribostamycin] | 35.6 µM |
| 74.2 µM | Cc1ccc(C(=O)Nc2ccc(S(=O)(=O)O)c3cc(S(=O)(=O)O)cc(S(=O)(=O)O)c23)cc1NC(=O)c1cccc(NC(=O)Nc2cccc(C(=O)Nc3cc(C(=O)Nc4ccc(S(=O)(=O)O)c5cc(S(=O)(=O)O)cc(S(=O)(=O)O)c45)ccc3C)c2)c1 [suramin] |  |
